Experimental data reported in patent US12454520B2, “Protein degraders and uses thereof” (Kymera Therapeutics, Inc., priority 2018, dated 2025).

Biological target: T1, SMARCA2 (Homo sapiens, UniProt P51531)
T1 construct: endogenous in cells; host or cells: NCI-H1299
Test: MSD SMARCA2 degradation in NCI-H1299 cell line
Assay type: cell-based
Settings: NCI-H1299 cells, percentage of SMARCA2 degradation after 24 hours
Experimental: Example 14. MSD SMARCA2 Degration in NCI-H1299 Cell Line
Cell Culture: Cells were cultured in exponential growth phase.
Compound Preparation and Treatment: NCI-H1299 cells were seeded into the 96-well plate at 4.0*10^4 cells per 100ul per well. Incubate the plate in the incubator overnight. The next day, compounds were diluted to designed stock concentration by TECAN, then perform a 3 fold, 9-point dilution via transferring 15 uL compound into 30 μL DMSO using Apricot. 200 nL diluted compound from compound source plate were transferred into the 96-intermediate plate as designated by using Echo550, followed with 100 ul culture medium to make the 2× compound solution. Cell plate were changed with 80 ul of fresh culture medium and 80 ul of 2× compound solution was added into the well to achieve the final designed concentration. Cell plate was then shaken at 720 rpm for 5 min and incubated for 24 hours in the incubator.
Sample Preparation: Media was aspirated from the cultures and the plate was washed with PBS twice. 60 ul of pre-chilled PIPA lysis buffer (Boston BioProducts BP-115D) with protease inhibitor were directly added into the well to lyze the cells for 20 minutes at 4° C. Cell lysates were collected.
MSD Procedure: The MSD plate was coated with 40 ul cell lysate and incubated at 4° C. overnight. The next day, the MSD coated bare plate was washed 3 times with 150 ul 1×TBST per well, blocked with 150 ul of blocking buffer per well, and shaken for 1 hour at RT, 600 rpm. Blocking buffer was 3% Blocker A in TBST. MSD plate was then washed 3 times with 150 ul 1×TBST per well and Primary Detection antibody (Rabbit anti-SMARCA2/BRM antibody, 100 μg/ml, ab223735) was added to a final [conc.]: 0.3 ug/ml, 25ul/well and shaken for 1 hour at RT, 600 rpm. Antibody was prepared in Antibody Detection buffer (1% Blocker A in 1×TBST). The MSD plate was then washed 3 times with 150 ul 1×TBST per well. Secondary Detection antibody (SULFO-TAG anti-species antibody) was then added to a final [conc.]: 1 μg/ml, 25 ul/well, and shaken for 1 hour at RT, 600 rpm. Antibodies were prepared in Antibody Detection buffer (1% Blocker A in 1×TBST). MSD plate was washed 3 times with 150 ul 1×TBST per well and 2×MSD reading buffer was added, 150 ul per well, and diluted from 4× with water. MSD instrument was then read.
Data Analysis: The percentage of relative level of SMARCA2 level was calculated following equation below.
LC: A2780, SMARCA2 negative cells. HC: NCI-H1299 cells treated with DMSO.
The letter codes for the percentage of SMARCA2 degradation after 24 hours (Dmax %) include: A (>90% degradation), B (>70-90% degradation), C (50-70% degradation), and D (<50% degradation).

T1 sequence (P51531 whole entry): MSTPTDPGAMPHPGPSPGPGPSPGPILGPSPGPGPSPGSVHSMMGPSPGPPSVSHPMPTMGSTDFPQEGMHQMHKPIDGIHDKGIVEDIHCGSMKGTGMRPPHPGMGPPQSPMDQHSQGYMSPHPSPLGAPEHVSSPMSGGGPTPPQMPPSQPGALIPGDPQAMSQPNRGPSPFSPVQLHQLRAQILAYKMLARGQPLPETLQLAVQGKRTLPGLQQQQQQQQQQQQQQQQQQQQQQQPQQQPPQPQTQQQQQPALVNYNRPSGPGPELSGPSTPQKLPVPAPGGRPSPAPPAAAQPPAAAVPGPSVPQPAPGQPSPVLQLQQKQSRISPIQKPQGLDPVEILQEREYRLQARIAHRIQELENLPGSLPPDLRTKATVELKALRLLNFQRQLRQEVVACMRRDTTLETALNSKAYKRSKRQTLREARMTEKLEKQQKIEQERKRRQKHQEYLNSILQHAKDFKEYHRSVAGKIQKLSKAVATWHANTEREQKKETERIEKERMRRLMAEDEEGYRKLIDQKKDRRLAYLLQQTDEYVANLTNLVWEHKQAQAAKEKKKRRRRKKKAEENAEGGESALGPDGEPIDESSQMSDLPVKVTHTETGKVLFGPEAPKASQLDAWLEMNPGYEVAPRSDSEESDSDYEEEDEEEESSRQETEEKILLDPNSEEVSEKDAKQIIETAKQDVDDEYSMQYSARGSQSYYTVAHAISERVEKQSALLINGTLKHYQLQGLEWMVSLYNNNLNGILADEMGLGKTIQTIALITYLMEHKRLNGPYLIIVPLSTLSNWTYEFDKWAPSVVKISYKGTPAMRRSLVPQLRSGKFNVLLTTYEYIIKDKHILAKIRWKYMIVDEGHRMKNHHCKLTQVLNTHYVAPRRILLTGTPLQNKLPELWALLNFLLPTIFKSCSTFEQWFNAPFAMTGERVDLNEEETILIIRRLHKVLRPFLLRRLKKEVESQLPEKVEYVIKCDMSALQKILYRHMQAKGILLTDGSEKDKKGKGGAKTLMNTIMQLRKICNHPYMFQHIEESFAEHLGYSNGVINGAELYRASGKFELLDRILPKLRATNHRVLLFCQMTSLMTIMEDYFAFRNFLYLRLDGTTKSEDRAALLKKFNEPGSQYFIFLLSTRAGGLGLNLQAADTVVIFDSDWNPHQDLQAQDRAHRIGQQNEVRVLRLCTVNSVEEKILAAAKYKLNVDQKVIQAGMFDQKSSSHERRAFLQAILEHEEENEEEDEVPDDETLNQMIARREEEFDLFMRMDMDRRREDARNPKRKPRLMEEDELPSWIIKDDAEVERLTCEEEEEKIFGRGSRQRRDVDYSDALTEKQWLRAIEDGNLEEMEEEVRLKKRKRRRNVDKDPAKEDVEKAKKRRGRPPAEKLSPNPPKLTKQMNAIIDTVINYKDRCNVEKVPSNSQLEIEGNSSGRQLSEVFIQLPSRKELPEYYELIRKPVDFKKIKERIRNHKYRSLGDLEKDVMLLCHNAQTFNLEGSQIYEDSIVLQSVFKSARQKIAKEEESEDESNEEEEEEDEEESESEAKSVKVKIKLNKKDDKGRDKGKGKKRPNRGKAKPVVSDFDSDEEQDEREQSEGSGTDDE

SMILES | Dmax [%]
Nc1nnc(-c2ccccc2O)cc1-c1ccc(CN2CCN(CCCCCc3ccnc4c3c3ccccc3n4C3CCC(=O)NC3=O)CC2)cc1 (stereo not shown) [I-81] | 70 to 90
Nc1nnc(-c2ccccc2O)cc1-c1cnn(CC2CCN(Cc3cccc4c3c3cccnc3n4C3CCC(=O)NC3=O)CC2)c1 (stereo not shown) [I-96] | 50 to 70
Nc1nnc(-c2ccccc2O)cc1-c1cnn(CC2CCN(CCCc3ccnc4c3c3ccccc3n4C3CCC(=O)NC3=O)CC2)c1 (stereo not shown) [I-103] | > 90
Nc1nnc(-c2ccccc2O)cc1-c1ccc(CNCCOCCOCCCc2cnc3c(c2)c2ccccc2n3C2CCC(=O)NC2=O)cc1 (stereo not shown) [I-88] | 70 to 90
CN(CCCCCc1ccnc2c1c1ccccc1n2C1CCC(=O)NC1=O)Cc1ccc(N2CCN(c3cc(-c4ccccc4O)nnc3N)CC2)cc1 (stereo not shown) [I-102] | 50 to 70
Nc1nnc(-c2ccccc2O)cc1-c1ccc(CN2CCN(CCCCCCc3ccnc4c3c3ccccc3n4C3CCC(=O)NC3=O)CC2)cc1 (stereo not shown) [I-82] | 70 to 90
Nc1nnc(-c2ccccc2O)cc1-c1cnn(CC2CCN(CCCCOCCCc3cccc4c3c3cccnc3n4C3CCC(=O)NC3=O)CC2)c1 (stereo not shown) [I-89] | < 50
Nc1nnc(-c2ccccc2O)cc1-c1cnn(CC2CCN(CCCCc3ccc4c(c3)c3cccnc3n4C3CCC(=O)NC3=O)CC2)c1 (stereo not shown) [I-134] | 70 to 90
Nc1nnc(-c2ccccc2O)cc1-c1ccc(CN2CCN(CCCCCCCc3ccc4c(c3)c3cccnc3n4C3CCC(=O)NC3=O)CC2)cc1 (stereo not shown) [I-75] | 70 to 90
Nc1nnc(-c2ccccc2O)cc1-c1ccc(CN2CCN(CCCCCCCCCc3ccc4c(c3)c3cccnc3n4C3CCC(=O)NC3=O)CC2)cc1 (stereo not shown) [I-77] | > 90
Nc1nnc(-c2ccccc2O)cc1-c1ccc(CN2CCN(CCCc3ccc4c(c3)c3cccnc3n4C3CCC(=O)NC3=O)CC2)cc1 (stereo not shown) [I-86] | < 50
Nc1nnc(-c2ccccc2O)cc1-c1cnn(C2CCN(Cc3cn(Cc4ccc5c(c4)c4cccnc4n5C4CCC(=O)NC4=O)nn3)CC2)c1 (stereo not shown) [I-146, 3-(6-((4-((4-(4-(3-amino-6-(2-hydroxyphenyl)pyridazin-4-yl)-1H-pyrazol-1-yl)piperidin-1-yl)methyl)-1H-1,2,3-triazol-1-yl)methyl)-9H-pyrido[2,3-b]indol-9-yl)piperidine-2,6-dione] | 70 to 90
Nc1nnc(-c2ccccc2O)cc1N1CCN(CCCCCc2cccc3c2c2cccnc2n3C2CCC(=O)NC2=O)CC1 (stereo not shown) [I-92] | < 50
Nc1nnc(-c2ccccc2O)cc1-c1ccc(CN2CCN(CCCCCCCCc3ccc4c(c3)c3cccnc3n4C3CCC(=O)NC3=O)CC2)cc1 (stereo not shown) [I-76] | > 90
Nc1nnc(-c2ccccc2O)cc1-c1ccc(CN2CCN(CCCCOCCCc3ccc4c(c3)c3cccnc3n4C3CCC(=O)NC3=O)CC2)cc1 (stereo not shown) [I-84] | 50 to 70
Nc1nnc(-c2ccccc2O)cc1N1CCN(CCCc2cccc3c2c2cccnc2n3C2CCC(=O)NC2=O)CC1 (stereo not shown) [I-91] | < 50
Nc1nnc(-c2ccccc2O)cc1-c1cnn(C2CCN(CCCCCc3ccc4c(c3)c3cccnc3n4C3CCC(=O)NC3=O)CC2)c1 (stereo not shown) [I-135] | 50 to 70
Nc1nnc(-c2ccccc2O)cc1-c1cnn(CC2CCN(CCCCCc3cccc4c3c3cccnc3n4C3CCC(=O)NC3=O)CC2)c1 (stereo not shown) [I-98] | > 90
Nc1nnc(-c2ccccc2O)cc1-c1cnn(C2CCCN(CCCc3ccnc4c3c3ccccc3n4C3CCC(=O)NC3=O)C2)c1 (stereo not shown) [I-143] | > 90
Nc1nnc(-c2ccccc2O)cc1-c1ccc(CN2CCN(CCCCCCCc3cccc4c3c3cccnc3n4C3CCC(=O)NC3=O)CC2)cc1 (stereo not shown) [I-80] | > 90
Nc1nnc(-c2ccccc2O)cc1N1CCN(Cc2cccc3c2c2cccnc2n3C2CCC(=O)NC2=O)CC1 (stereo not shown) [I-90] | < 50
Nc1nnc(-c2ccccc2O)cc1-c1cnn(C2CCN(CCCCCc3ccnc4c3c3ccccc3n4C3CCC(=O)NC3=O)CC2)c1 (stereo not shown) [I-137] | > 90

SMILES | Dmax [%]
Nc1nnc(-c2ccccc2O)cc1-c1cnn(C2CCCN(CCCc3ccc4c(c3)c3cccnc3n4C3CCC(=O)NC3=O)C2)c1 (stereo not shown) [I-142] | < 50
Nc1nnc(-c2ccccc2O)cc1-c1cnn(C2CCN(CCCCc3ccc4c(c3)c3cccnc3n4C3CCC(=O)NC3=O)CC2)c1 (stereo not shown) [I-133] | > 90
Nc1nnc(-c2ccccc2O)cc1-c1ccc(CN2CCN(Cc3ccc4c(c3)c3cccnc3n4C3CCC(=O)NC3=O)CC2)cc1 (stereo not shown) [I-105] | < 50
Nc1nnc(-c2ccccc2O)cc1N1CC2CCC(C1)N2c1ncc(C2CCN(CCCc3ccc4c(c3)c3cccnc3n4C3CCC(=O)NC3=O)CC2)cn1 (stereo not shown) [I-138, 3-[6-[3-[4-[2-[3-[3-amino-6-(2-hydroxyphenyl)pyridazin-4-yl]-3,8-diazabicyclo[3.2.1]octan-8-yl]pyrimidin-5-yl]-1-piperidyl]propyl]pyrido[2,3-b]indol-9-yl]piperidine-2,6-dione] | > 90
CN(Cc1ccc(N2CCN(c3cc(-c4ccccc4O)nnc3N)CC2)cc1)CC1CCN(Cc2ccc3c(c2)c2cccnc2n3C2CCC(=O)NC2=O)CC1 (stereo not shown) [I-85] | > 90
Nc1nnc(-c2ccccc2O)cc1-c1cnn([C@H]2CCCN(CCCc3ccc4c(c3)c3cccnc3n4C3CCC(=O)NC3=O)C2)c1 (stereo partly drawn) [I-141, 3-[6-[3-[(3S)-3-[4-[3-amino-6-(2-hydroxyphenyl)pyridazin-4-yl]pyrazol-1-yl]-1-piperidyl]propyl]pyrido[2,3-b]indol-9-yl]piperidine-2,6-dione] | 70 to 90
CN(Cc1ccc(N2CCN(c3cc(-c4ccccc4O)nnc3N)CC2)cc1)CC1CCN(Cc2cccc3c2c2cccnc2n3C2CCC(=O)NC2=O)CC1 (stereo not shown) [I-87] | < 50
Nc1nnc(-c2ccccc2O)cc1-c1ccc(CN2CCN(CCCCCCc3cccc4c3c3cccnc3n4C3CCC(=O)NC3=O)CC2)cc1 (stereo not shown) [I-79] | 50 to 70
Nc1nnc(-c2ccccc2O)cc1-c1cnn(CC2COC(CCCCc3ccc4c(c3)c3cccnc3n4C3CCC(=O)NC3=O)OC2)c1 (stereo not shown) [I-140, 3-(6-(4-(5-((4-(3-amino-6-(2-hydroxyphenyl)pyridazin-4-yl)-1H-pyrazol-1-yl)methyl)-1,3-dioxan-2-yl)butyl)-9H-pyrido[2,3-b]indol-9-yl)piperidine-2,6-dione] | < 50
Nc1nnc(-c2ccccc2O)cc1N1CCN(CCCCCc2ccnc3c2c2ccccc2n3C2CCC(=O)NC2=O)CC1 (stereo not shown) [I-100] | < 50
CN(CCCCCc1cccc2c1c1cccnc1n2C1CCC(=O)NC1=O)Cc1ccc(N2CCN(c3cc(-c4ccccc4O)nnc3N)CC2)cc1 (stereo not shown) [I-95] | < 50
Nc1nnc(-c2ccccc2O)cc1N1CC2CCC(C1)N2c1ncc(C2CCN(CCCc3ccnc4c3c3ccccc3n4C3CCC(=O)NC3=O)CC2)cn1 (stereo not shown) [I-145, 3-(4-(3-(4-(2-(3-(3-amino-6-(2-hydroxyphenyl)pyridazin-4-yl)-3,8-diazabicyclo[3.2.1]octan-8-yl)pyrimidin-5-yl)piperidin-1-yl)propyl)-9H-pyrido[2,3-b]indol-9-yl)piperidine-2,6-dione] | > 90
Nc1nnc(-c2ccccc2O)cc1-c1cnn(CC2CCN(CCCCCc3ccnc4c3c3ccccc3n4C3CCC(=O)NC3=O)CC2)c1 (stereo not shown) [I-104] | > 90
Nc1nnc(-c2ccccc2O)cc1-c1cnn(C2CCN(C3CCC(c4ccc5c(c4)c4cccnc4n5C4CCC(=O)NC4=O)CC3)CC2)c1 (stereo not shown) [I-144] | > 90
Nc1nnc(-c2ccccc2O)cc1N1CCN(CCCc2ccnc3c2c2ccccc2n3C2CCC(=O)NC2=O)CC1 (stereo not shown) [I-99] | < 50
CN(Cc1ccc(N2CCN(c3cc(-c4ccccc4O)nnc3N)CC2)cc1)Cc1cccc2c1c1cccnc1n2C1CCC(=O)NC1=O (stereo not shown) [I-93] | < 50
Nc1nnc(-c2ccccc2O)cc1-c1cnn(CC2CCN(CCCc3cccc4c3c3cccnc3n4C3CCC(=O)NC3=O)CC2)c1 (stereo not shown) [I-97] | > 90
Nc1nnc(-c2ccccc2O)cc1-c1ccc(CN2CCN(CCCCCCCc3ccnc4c3c3ccccc3n4C3CCC(=O)NC3=O)CC2)cc1 (stereo not shown) [I-83] | 70 to 90
CN(CCCc1ccnc2c1c1ccccc1n2C1CCC(=O)NC1=O)Cc1ccc(N2CCN(c3cc(-c4ccccc4O)nnc3N)CC2)cc1 (stereo not shown) [I-101] | < 50
Nc1nnc(-c2ccccc2O)cc1-c1ccc(CN2CCN(CCCCCc3cccc4c3c3cccnc3n4C3CCC(=O)NC3=O)CC2)cc1 (stereo not shown) [I-78] | 50 to 70
CN(CCCc1cccc2c1c1cccnc1n2C1CCC(=O)NC1=O)Cc1ccc(N2CCN(c3cc(-c4ccccc4O)nnc3N)CC2)cc1 (stereo not shown) [I-94] | 50 to 70
